Drawing on PubChem BioAssay AID328 (DTP/NCI, 2004), this text covers T/C for 15 compounds.

Where “and” joins values, the source holds several entries; their conditions need not be identical. Identical values can stand only once. Inconclusive results and toxic doses are left out.

This test relates to BDF1 mice, P388 leukemia ip, median survival T/C. The test is described as follows: NCI In Vivo Anticancer Drug Screen. Data for tumor model P388 Leukemia (intraperitoneal) in B6D2F1 (BDF1) mice. To be noted: endpoint: median survival time, higher = longer survival. Summed up: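 In tumour-bearing mice, survival after compound treatment is set against the vehicle group and given as a quotient.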

Setting [1] is: dose: 100.0 mg/kg/injection, schedule: Q01DX001 (ip), vehicle: saline with Tween-80.
The mark [2] stands for this setting: dose: 200.0 mg/kg/injection, schedule: Q01DX001 (ip), vehicle: saline with Tween-80.
Where [3] appears, read: dose: 400.0 mg/kg/injection, schedule: Q01DX001 (ip), vehicle: saline with Tween-80.
The mark [4] stands for this setting: dose: 12.5 mg/kg/injection, schedule: Q01DX009 (ip), vehicle: other.
The mark [5] stands for this setting: dose: 25.0 mg/kg/injection, schedule: Q01DX009 (ip), vehicle: other.
Setting [6] is: dose: 50.0 mg/kg/injection, schedule: Q01DX009 (ip), vehicle: other.
Where [7] appears, read: dose: 100.0 mg/kg/injection, schedule: Q01DX009 (ip), vehicle: other.
Where [8] appears, read: dose: 200.0 mg/kg/injection, schedule: Q01DX009 (ip), vehicle: other.
Setting [9] is: dose: 50.0 mg/kg/injection, schedule: Q01DX009 (ip), vehicle: saline with Tween-80.
Where [10] appears, read: dose: 100.0 mg/kg/injection, schedule: Q01DX009 (ip), vehicle: saline with Tween-80.
The mark [11] stands for this setting: dose: 200.0 mg/kg/injection, schedule: Q01DX009 (ip), vehicle: saline with Tween-80.
Setting [12] is: dose: 25.0 mg/kg/injection, schedule: Q01DX009 (ip), vehicle: saline with Tween-80.

On to `CCC(=O)Nc1cccc(Cl)c1`, for which the T/C under setting [1] was 109 % of control, the T/C under setting [2] is 109 % of control and the T/C under setting [3] is 90 % of control.

For the compound `c1cn[nH]c1`, the T/C by setting is: (dose: 4.0 mg/kg/injection, schedule: Q01DX010 (ip), vehicle: water) 100 % of control; (dose: 8.0 mg/kg/injection, schedule: Q01DX010 (ip), vehicle: water) 90 % of control.

For the compound `CC1=CC(=O)NP(=O)(Oc2ccc3ccccc3c2)N1` (configuration not stated), the T/C by setting is: (dose: 25.0 mg/kg/injection, schedule: Q04DX003 (ip), vehicle: saline + alcohol) 106 % of control; (dose: 50.0 mg/kg/injection, schedule: Q04DX003 (ip), vehicle: saline + alcohol) 98 % of control; (dose: 100.0 mg/kg/injection, schedule: Q04DX003 (ip), vehicle: saline + alcohol) 100 % of control; (dose: 200.0 mg/kg/injection, schedule: Q04DX003 (ip), vehicle: saline + alcohol) 94 % of control; (dose: 400.0 mg/kg/injection, schedule: Q04DX003 (ip), vehicle: saline + alcohol) 95 % of control.

Take `CC(C)C(NC(=O)CN)C(=O)OCCCCS(=O)(=O)c1ccc(CO)cc1` (configuration not stated): the T/C (dose: 50.0 mg/kg/injection, schedule: Q01DX005 (ip), vehicle: suspension in saline) was 100 % of control; the T/C (dose: 100.0 mg/kg/injection, schedule: Q01DX005 (ip), vehicle: suspension in saline) was 100 % of control; the T/C (dose: 200.0 mg/kg/injection, schedule: Q01DX005 (ip), vehicle: suspension in saline) was 95 % of control.

With `CC(=O)ON(CC(=O)OCc1ccccc1)C(C)=O`, the T/C runs as follows: under setting [4], 100 % of control; under setting [5], 102 % of control; under setting [6], 118 % of control; under setting [7], 102 % of control; under setting [8], 100 % of control.

In the case of `CCOC(=O)c1c(C)nc(C)c(C(=O)OCC)c1-c1cccnc1`, the T/C is, setting by setting: under setting [4], 101 % of control; under setting [5], 100 % of control; under setting [6], 100 % of control; under setting [7], 110 % of control; under setting [8], 112 % of control.

Regarding `Cc1ccc(S(=O)(=O)OCC2C3CCCC2C3)cc1` (configuration not stated), the T/C by setting is: under setting [9], 101 % of control; under setting [10], 100 % of control; under setting [11], 96 % of control.

In the case of `COc1cc(Br)c(CCC#N)cc1OC`, the T/C is 91 % of control under setting [9], 110 % of control under setting [10] and 92 % of control under setting [11].

Consider `O=C(CC(=O)C(F)(F)F)c1csc2ccccc12`, for which the T/C by setting is: (dose: 12.5 mg/kg/injection, schedule: Q01DX009 (ip), vehicle: saline with Tween-80) 100 % of control; (dose: 25.0 mg/kg/injection, schedule: Q01DX009 (ip), vehicle: gum acacia) 112 % of control; under setting [12], 112 % of control; (dose: 25.0 mg/kg/injection, schedule: Q04DX003 (ip), vehicle: gum acacia) 111 % of control; (dose: 50.0 mg/kg/injection, schedule: Q01DX001 (ip), vehicle: Klucel (hydroxypropylcellulose) (HPC)) 104 % of control; (dose: 50.0 mg/kg/injection, schedule: Q01DX009 (ip), vehicle: gum acacia) 120 % of control. The T/C runs as follows: under setting [9], 91 % of control; (dose: 50.0 mg/kg/injection, schedule: Q04DX003 (ip), vehicle: gum acacia) 100 % of control; (dose: 66.0 mg/kg/injection, schedule: Q01DX009 (ip), vehicle: gum acacia) 107 % of control; (dose: 66.0 mg/kg/injection, schedule: Q01DX009 (ip), vehicle: saline with Tween-80) 120 % of control; (dose: 75.0 mg/kg/injection, schedule: Q01DX009 (ip), vehicle: Klucel (hydroxypropylcellulose) (HPC)) 115 % of control; (dose: 100.0 mg/kg/injection, schedule: Q01DX001 (ip), vehicle: Klucel (hydroxypropylcellulose) (HPC)) 113 % of control. The T/C by setting is: (dose: 100.0 mg/kg/injection, schedule: Q04DX003 (ip), vehicle: gum acacia) 107 % of control and 111 % of control; (dose: 115.0 mg/kg/injection, schedule: Q01DX009 (ip), vehicle: Klucel (hydroxypropylcellulose) (HPC)) 120 % of control; (dose: 150.0 mg/kg/injection, schedule: Q01DX009 (ip), vehicle: gum acacia) 100 % of control; (dose: 200.0 mg/kg/injection, schedule: Q01DX001 (ip), vehicle: Klucel (hydroxypropylcellulose) (HPC)) 86 % of control.

As to `O=C(Nc1cc(Cl)ccc1C(=O)O)c1cccc(C[n+]2ccccc2)c1`, the T/C is 111 % of control (dose: 50.0 mg/kg/injection, schedule: Q01DX005 (ip), vehicle: saline with Tween-80) and 111 % of control (dose: 100.0 mg/kg/injection, schedule: Q01DX005 (ip), vehicle: saline with Tween-80).

For `CSc1nc(NCc2ccc(Cl)cc2)c2[nH]c(C)nc2n1`, the T/C (dose: 0.78 mg/kg/injection, schedule: Q01DX009 (ip), vehicle: saline with Tween-80) was 122 % of control; the T/C (dose: 1.56 mg/kg/injection, schedule: Q01DX009 (ip), vehicle: saline with Tween-80) was 101 % of control; the T/C (dose: 3.13 mg/kg/injection, schedule: Q01DX009 (ip), vehicle: saline with Tween-80) is 97 % of control; the T/C (dose: 6.25 mg/kg/injection, schedule: Q01DX009 (ip), vehicle: saline with Tween-80) is 93 % of control.

As to `CC(=O)OC1C(=O)C(O)C(C)OC1O[C@@H]1C[C@@]2(C)[C@@H]3CC=C4[C@@H](C[C@H](O)C(=O)C4(C)C)[C@]3(C)C(=O)C[C@]2(C)[C@H]1[C@@](C)(O)C(=O)/C=C/C(C)(C)O` (some centres not stated), the T/C runs as follows: (dose: 0.13 mg/kg/injection, schedule: Q01DX009 (ip), vehicle: Klucel (hydroxypropylcellulose) (HPC)) 104 % of control; (dose: 0.16 mg/kg/injection, schedule: Q01DX010 (ip), vehicle: saline) 107 % of control and 110 % of control; (dose: 0.25 mg/kg/injection, schedule: Q01DX009 (ip), vehicle: Klucel (hydroxypropylcellulose) (HPC)) 109 % of control; (dose: 0.25 mg/kg/injection, schedule: Q01DX010 (ip), vehicle: carboxymethylcellulose (CMC)) 90 % of control; (dose: 0.33 mg/kg/injection, schedule: Q01DX010 (ip), vehicle: saline) 109 % of control and 110 % of control; (dose: 0.5 mg/kg/injection, schedule: Q01DX009 (ip), vehicle: Klucel (hydroxypropylcellulose) (HPC)) 118 % of control. Also, the T/C runs as follows: (dose: 0.5 mg/kg/injection, schedule: Q01DX010 (ip), vehicle: carboxymethylcellulose (CMC)) 87 % of control and 90 % of control; (dose: 0.67 mg/kg/injection, schedule: Q01DX010 (ip), vehicle: saline) 108 % of control and 110 % of control; (dose: 1.0 mg/kg/injection, schedule: Q01DX009 (ip), vehicle: Klucel (hydroxypropylcellulose) (HPC)) 113 % of control; (dose: 1.25 mg/kg/injection, schedule: Q01DX010 (ip), vehicle: saline) 109 % of control and 110 % of control; (dose: 1.4 mg/kg/injection, schedule: Q01DX009 (ip), vehicle: saline) 150 % of control; (dose: 2.0 mg/kg/injection, schedule: Q01DX009 (ip), vehicle: Klucel (hydroxypropylcellulose) (HPC)) 90 % of control. The T/C was 110 % of control and 111 % of control (dose: 2.5 mg/kg/injection, schedule: Q01DX010 (ip), vehicle: saline); 120 % of control (dose: 2.6 mg/kg/injection, schedule: Q01DX009 (ip), vehicle: saline).

With `COc1ccc2c(c1)CCC1(C)C2=CC(=O)/C1=C\[O-].COc1ccc2c(c1)CCC1(C)C2=CC(=O)/C1=C\[O-].[Cu+2]` (configuration not stated), the T/C by setting is: under setting [12], 95 % of control; under setting [9], 95 % of control; under setting [10], 95 % of control.

For the compound `NN=C(c1ccccc1)c1ccccc1`, the T/C (dose: 20.93 mg/kg/injection, schedule: Q01DX009 (ip), vehicle: Klucel (hydroxypropylcellulose) (HPC)) was 86 % of control; the T/C (dose: 31.25 mg/kg/injection, schedule: Q04DX003 (ip), vehicle: Klucel (hydroxypropylcellulose) (HPC)) is 90 % of control and 104 % of control; the T/C (dose: 41.87 mg/kg/injection, schedule: Q01DX009 (ip), vehicle: Klucel (hydroxypropylcellulose) (HPC)) was 95 % of control; the T/C (dose: 62.5 mg/kg/injection, schedule: Q04DX003 (ip), vehicle: Klucel (hydroxypropylcellulose) (HPC)) was 90 % of control; the T/C (dose: 125.0 mg/kg/injection, schedule: Q04DX003 (ip), vehicle: Klucel (hydroxypropylcellulose) (HPC)) was 90 % of control; the T/C (dose: 190.0 mg/kg/injection, schedule: Q04DX003 (ip), vehicle: Klucel (hydroxypropylcellulose) (HPC)) was 86 % of control.

In the case of `CS(=O)(=O)Nc1ccc(NS(C)(=O)=O)cc1`, the T/C is 112 % of control under setting [1], 100 % of control under setting [2] and 100 % of control under setting [3].
